Laboratory results taken from US20240041898A9, “NEUROSTEROIDS AND ENANTIOMERS THEREOF FOR THE PREVENTION AND TREATMENT OF NEURODEGENERATIVE CONDITIONS” (priority 2019, published 2024).
“And” between values parts separate entries of the source, which are not always exact repeats. Identical values can stand only once.

Columns and labels:
[1] = system: nerve fiber layer (NFL) of retina; assay: Ex vivo pressure-loaded retinas, electron microscopy of autophagosomes (AP) and degenerative autophagic vacuoles (DAV); assay type: cell-based, rat; conditions: 75 mmHg, 1 μM; for Autophagosomes (AP) in the NFL, Total / Degenerative autophagic vacuoles (DAV) in the NFL, Total: Total of 10 areas of 25 μm2; for Autophagosomes (AP)/25 μm2 in the NFL, individual areas 1-10 / Degenerative autophagic vacuoles (DAV)/25 μm2 in the NFL, individual areas 1-10: single values
Method: Rat ex vivo Eyecup Preparation—Rat ex vivo eyecups were prepared from 28-32 day old male Sprague-Dawley rats (Charles River Laboratories International Inc., Wilmington, MA). The anterior half of the enucleated eyes was carefully removed to make eyecup preparations. Eyecups were placed at the bottom of a 100 ml glass beaker filled with aCSF (artificial cerebrospinal fluid) containing (in mM): 124 NaCl, 5 KCl, 2 MgSO4, 2 CaCl2, 1.25 NaH2PO4, 22 NaHCO3, and 10 glucose, and incubated at 30° C. for 24 hours using a closed pressure-loading system (FIG. 1C). pH was maintained at 7.35 to 7.40. In the closed-pressure system, a glass beaker with the eyecup was placed at the bottom of an acrylic pressure chamber (2,000 ml volume). A 95% O2-5% CO2 gas mixture was delivered through disposable plastic tubing with an infusion valve and a control dial on the lid of the pressure chamber and an air filter (Cat #SLGP033RS, Merck Millipore, Billerica, MA). The plastic tubing delivering the gas terminated 1 cm above the bottom of the beaker.
Acutely prepared eyecups were incubated in gassed aCSF for at least 1 h at 30° C. before pressure loading. In some experiments, AlloP (1 μM), ent-AlloP (1 μM), and 3-MA (10 mM) were dissolved in aCSF at the time of experiment and administered by bath perfusion. Eyecup preparations were treated with these drugs for 1 h at 30° C. before pressure loading. For pressure loading, the 95% O2-5% CO2 gas mixture was infused until the pressure reading given by a manometer reached the appropriate level. The pressure was then locked by adjusting the control dial of the effusion valve, and monitored continuously for 24 h at 30° C.
Electron Microscopy—Retinal specimens were trimmed to a smaller size, and ultrathin sections (75 nm) were cut with a diamond knife and suspended over formvar-coated slot grids (1×2 mm opening). The sections were stained with uranyl acetate and lead citrate and viewed in a transmission electron microscope (H-7650, Hitachi High-Technologies Corp., Tokyo, Japan). Numbers of AP and DAV inside NFLs and axons were determined as the sum in 10 different areas of 25 μm^2 each from each sample. The analysis was performed in three eyes per experimental condition.

[2] = system: mouse model of Niemann-Pick Type C disease; conditions: cited from earlier work
[3] = system: primary astrocyte cultures; conditions: cited from earlier work

SMILES | RGC axon swelling, electron microscopy [1] | Autophagosomes (AP) in the NFL, Total [1] | Degenerative autophagic vacuoles (DAV) in the NFL, Total [1] | Autophagosomes (AP)/25 μm2 in the NFL, individual areas 1-10 [1] | Degenerative autophagic vacuoles (DAV)/25 μm2 in the NFL, individual areas 1-10 [1] | autophagy [2] | autophagy [3]
CC(=O)[C@@H]1CC[C@@H]2[C@H]3CC[C@@H]4C[C@@H](O)CC[C@@]4(C)[C@@H]3CC[C@]21C [ent-AlloP, ent-allopregnanolone] | protected RGC axons from high pressure | 1 | 22 | 0 /25 μm2 (9×) and 1 /25 μm2 | 1 /25 μm2 (3×) and 2 /25 μm2 (4×) and 4 /25 μm2 (2×) and 3 /25 μm2 | – | –
CC(=O)[C@H]1CC[C@H]2[C@@H]3CC[C@H]4C[C@H](O)CC[C@]4(C)[C@H]3CC[C@]12C [AlloP, allopregnanolone] | protected RGC axons from high pressure | 16 | 8 | 0 /25 μm2 (2×) and 2 /25 μm2 (6×) and 3 /25 μm2 and 1 /25 μm2 | 0 /25 μm2 (4×) and 1 /25 μm2 (5×) and 3 /25 μm2 | activate autophagy | activate autophagy
